Results published in patent publication US20220127258A1, “AROMATIC RING OR HETEROAROMATIC RING COMPOUNDS, PREPARATION METHOD THEREFOR AND MEDICAL USE THEREOF” (The National Institutes of Pharmaceutical R&D Co., Ltd., priority 2019, published 2022).

target: T1, FXR (Homo sapiens, UniProt Q96RI1); assay: FXR agonistic activity, luciferase assay; format: cell-based; conditions: luc2P-GAL4-HEK293 cells transfected with pBIND-FXR, 24 hours
T1 sequence (Q96RI1 262-486 limits assumed): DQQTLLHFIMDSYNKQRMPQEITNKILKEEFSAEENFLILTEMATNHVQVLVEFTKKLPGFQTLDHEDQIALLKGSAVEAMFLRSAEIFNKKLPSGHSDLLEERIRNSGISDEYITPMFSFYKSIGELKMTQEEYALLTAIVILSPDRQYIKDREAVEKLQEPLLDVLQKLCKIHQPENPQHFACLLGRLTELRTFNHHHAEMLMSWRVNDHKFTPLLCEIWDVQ
Method: The FXR agonistic activity of the compound of the present invention was evaluated using the luciferase assay.
The experimental process comprises the follows. The luc2P-GAL4-HEK293 stably transfected cell line (the cell line was established by transfecting pGL4.35 plasmid with HEK293 cells which was then subjected to Hygromycin B screening. The cell contained 9×GAL4 UAS and firefly luciferase reporter gene. The ligand-activated LBD-GAL4 DBD fusion protein can enter the nucleus to bind to 9×GAL4 UAS and activate the transcription of the downstream luciferase reporter gene) was transferred to a 96-well plate with […] per well. pBIND-FXR (Which was constructed by inserting FXR-LBD into pFN26A-BIND hRluc-neo Flexi® vector. The plasmid was 7.5 kb in size, Amp resistant, contained FXR-LBD, and can express FXR-LBD and GAL4 DBD fusion proteins) was transfected using X-tremeGENE HP transfection reagent. The ratio of plasmid to transfection reagent was 1 μg: 2 μl. The specific amount was 100 ng of plasmid and 0.2 μl of X-tremeGENE HP transfection reagent per well. The test compounds (the highest concentration of each compound was 30 μM, 3-fold dilution, a total of 10 concentrations) were added to induce the expression of luciferase. After 24 hours, the 96-well plate containing the test cells was taken out from the incubator, and placed at room temperature. Dual-Glo® Luciferase Reagent with the volume equal to the volume of the medium in the well (80 μl/well) was added to each well and mixed well. The plate was incubated at room temperature for 20 minutes to allow the cells to be fully lysed. All the liquid in the plate was transferred to a 96-well microtiter plate, and the firefly luciferin value was measured with a multi-function plate reader (manufacturer: Bio Tek (USA); model: Synergy4). Dual-Glo® a Stop & Glo® Reagent with the volume equal to the volume of the initial medium (80 μl/well) was added to each well and mixed well. The plate was incubated at room temperature for 10 minutes, and the renilla luciferin value was measured. The measurement order of renilla fluorescence should be the same as that of firefly fluorescence. Curve fitting and EC50 calculation were conducted using GraphPad Prism 5 software by nonlinear regression method. The fitting equation is: Y=Bottom+(Top−Bottom)/(1+10^((Log EC50−X)*HillSlope)), wherein EC50 refers to the semi-effective concentration, Top refers to the maximum effect, Bottom refers to the blank effect, and HillSlope refers to the slope.

Row | Structure (SMILES) | EC50
1 | Cc1cc(C(=O)O)ccc1-c1nnc(N2[C@@H]3CC[C@H]2C[C@@H](OCc2c(-c4ccccc4OC(F)(F)F)noc2C2CC2)C3)o1 [Example 27] | < 0.025 µM
2 | Cc1cc(-c2nnc(N3[C@@H]4CC[C@H]3C[C@@H](OCc3c(-c5c(Cl)cccc5Cl)noc3C3CC3)C4)o2)ccc1C(=O)O [Example 17] | < 0.025 µM
3 | O=C(O)c1cccc(-c2nnc(N3[C@@H]4CC[C@H]3C[C@@H](OCc3c(-c5ccccc5OC(F)(F)F)noc3C3CC3)C4)o2)n1 [Example 24, 6-(5-((1R,3r,5S)-3-((5-cyclopropyl-3-(2-(trifluoromethoxy)phenyl)isoxazol-4-yl)methoxy)-8-azabicyclo[3.2.1]octan-8-yl)-1,3,4-oxadiazol-2-yl)pyridine-2-carboxylic acid] | > 0.5 µM
4 | O=C(O)c1cc(-c2nnc(N3[C@@H]4CC[C@H]3C[C@@H](OCc3c(-c5c(Cl)cccc5Cl)noc3C3CC3)C4)o2)cs1 [Example 21] | 0.1 to 0.5 µM
5 | O=C(O)c1ccc(-c2nnc(N3[C@@H]4CC[C@H]3C[C@@H](OCc3c(-c5ccccc5OC(F)(F)F)noc3C3CC3)C4)o2)s1 [Example 25] | 0.1 to 0.5 µM
6 | O=C(O)c1ccc(-c2nnc(N3[C@@H]4CC[C@H]3C[C@@H](OCc3c(-c5ccccc5OC(F)(F)F)noc3C3CC3)C4)o2)cn1 [Example 31, 5-(5-((1R,3r,5S)-3-((5-cyclopropyl-3-(2-(trifluoromethoxy)phenyl)isoxazol-4-yl)methoxy)-8-azabicyclo[3.2.1]octan-8-yl)-1,3,4-oxadiazol-2-yl)pyridine-carboxylic acid] | 0.1 to 0.5 µM
7 | O=C(O)c1cccc(-c2noc(N3[C@@H]4CC[C@H]3C[C@@H](OCc3c(-c5c(Cl)cccc5Cl)noc3C3CC3)C4)n2)n1 [Example 3] | < 0.025 µM
8 | O=C(O)c1ccc(-c2noc(N3[C@@H]4CC[C@H]3C[C@@H](OCc3c(-c5c(Cl)cccc5Cl)noc3C3CC3)C4)n2)s1 [Example 4] | < 0.025 µM
9 | O=C(O)c1ccc(-c2nnc(N3[C@@H]4CC[C@H]3C[C@@H](OCc3c(-c5c(Cl)cccc5Cl)noc3C3CC3)C4)o2)c(F)c1 [Example 16, 4-(5-((1R,3r,5S)-(3-((5-cyclopropyl-3-(2,6-dichlorophenyl)isoxazol-4-yl))methoxy)-8-azabicyclo[3.2.1]octan-8-yl)-1,3,4-oxadiazol-2-yl)-3-fluorobenzoic acid] | 0.05 to 0.1 µM
10 | O=C(O)c1cccc(-c2noc(N3[C@@H]4CC[C@H]3C[C@@H](OCc3c(-c5c(Cl)cccc5Cl)noc3C3CC3)C4)n2)c1 [Example 6] | < 0.025 µM
11 | Cc1cc(-c2nnc(N3[C@@H]4CC[C@H]3C[C@@H](OCc3c(-c5ccccc5OC(F)(F)F)noc3C3CC3)C4)o2)ccc1C(=O)O [Example 30] | < 0.025 µM
12 | O=C(O)c1cccc(-c2nnc(N3[C@@H]4CC[C@H]3C[C@@H](OCc3c(-c5c(Cl)cccc5Cl)noc3C3CC3)C4)o2)c1 [Example 15] | < 0.025 µM
13 | O=C(O)c1cccc(-c2nnc(N3[C@@H]4CC[C@H]3C[C@@H](OCc3c(-c5c(Cl)cccc5Cl)noc3C3CC3)C4)o2)n1 [Example 10, 6-(5-((1R,3r,5S)-3-((5-cyclopropyl-3-(2,6-dichlorophenyl)isoxazol-4-yl)methoxy)-8-azabicyclo[3.2.1]octan-8-yl)-1,3,4-oxadiazol-2-yl)pyridine-2-carboxylic acid] | 0.1 to 0.5 µM
14 | O=C(O)c1ccc(-c2nnc(N3[C@@H]4CC[C@H]3C[C@@H](OCc3c(-c5ccccc5OC(F)(F)F)noc3C3CC3)C4)o2)cc1Cl [Example 23, 2-chloro-4-(5-((1R,3r,5S)-3-((5-cyclopropyl-3-(2-(trifluoromethoxy)phenyl)isoxazol-4-yl)methoxy)-8-azabicyclo[3.2.1]octan-8-yl)-1,3,4-oxadiazol-2-yl)benzoic acid] | 0.1 to 0.5 µM
15 | O=C(O)c1ccc(-c2noc(N3[C@@H]4CC[C@H]3C[C@@H](OCc3c(-c5c(Cl)cccc5Cl)noc3C3CC3)C4)n2)cc1 [Example 1, 4-(5-((1R,3r,5S)-3-((5-cyclopropyl-3-(2,6-dichlorophenyl)-isoxazol-4-yl)methoxy)-8-azabicyclo[3.2.1]octan-8-yl)-1,2,4-oxadiazol-3-yl)benzoic acid] | < 0.025 µM
16 | O=C(O)c1csc(-c2nnc(N3[C@@H]4CC[C@H]3C[C@@H](OCc3c(-c5ccccc5OC(F)(F)F)noc3C3CC3)C4)o2)c1 [Example 33, 5-(5-((1R,3r,5S)-3-((5-cyclopropyl-3-(2-(trifluoromethoxy)phenyl)isoxazol-4-yl)methoxy)-8-azabicyclo[3.2.1]octan-8-yl)-1,3,4-oxadiazol-2-yl)thiophene-3-carboxylic acid] | 0.1 to 0.5 µM
17 | COc1cc(-c2nnc(N3[C@@H]4CC[C@H]3C[C@@H](OCc3c(-c5c(Cl)cccc5Cl)noc3C3CC3)C4)o2)ccc1C(=O)O [Example 13] | < 0.025 µM
18 | O=C(O)c1ccc(-c2nnc(N3[C@@H]4CC[C@H]3C[C@@H](OCc3c(-c5ccccc5OC(F)(F)F)noc3C3CC3)C4)o2)nc1 [Example 32] | > 0.5 µM
19 | O=C(O)c1ccc(-c2noc(N3[C@@H]4CC[C@H]3C[C@@H](OCc3c(-c5c(Cl)cccc5Cl)noc3C3CC3)C4)n2)cc1Cl [Example 2, 2-chloro-4-(5-((1R,3r,5S)-3-((5-cyclopropyl-3-(2,6-dichlorophenyl)isoxazol-4-yl)methoxy)-8-azabicyclo[3.2.1]octan-8-yl)-1,2,4-oxadiazol-3-yl)benzoic acid] | < 0.025 µM
20 | O=C(O)c1cc(-c2nnc(N3[C@@H]4CC[C@H]3C[C@@H](OCc3c(-c5ccccc5OC(F)(F)F)noc3C3CC3)C4)o2)cs1 [Example 34] | > 0.5 µM
21 | Cc1cc(C(=O)O)ccc1-c1noc(N2[C@@H]3CC[C@H]2C[C@@H](OCc2c(-c4c(Cl)cccc4Cl)noc2C2CC2)C3)n1 [Example 5] | < 0.025 µM
22 | Cc1cc(-c2noc(N3[C@@H]4CC[C@H]3C[C@@H](OCc3c(-c5c(Cl)cccc5Cl)noc3C3CC3)C4)n2)ccc1C(=O)O [Example 7] | < 0.025 µM
23 | O=C(O)c1ccc(-c2nnc(N3[C@@H]4CC[C@H]3C[C@@H](OCc3c(-c5c(Cl)cccc5Cl)noc3C3CC3)C4)o2)nc1 [Example 19, 6-(5-((1R,3r,5S)-3-((5-cyclopropyl-3-(2,6-dichlorophenyl)isoxazol-4-yl)methoxy)-8-azabicyclo[3.2.1]octan-8-yl)-1,3,4-oxadiazol-2-yl)nicotinic acid] | > 0.5 µM
24 | O=C(O)c1ccc(-c2nnc(N3[C@@H]4CC[C@H]3C[C@@H](OCc3c(-c5c(Cl)cccc5Cl)noc3C3CC3)C4)o2)cn1 [Example 18, 5-(5-((1R,3r,5S)-3-((5-cyclopropyl-3-(2,6-dichlorophenyl)isoxazol-4-yl)methoxy)-8-azabicyclo[3.2.1]octan-8-yl)-1,3,4-oxadiazol-2-yl)pyridine-carboxylic acid] | 0.1 to 0.5 µM
